Legend:
[1] = system: hiPSC-CMs (Cor.4U cardiomyocytes); test: calcium transient-based hiPSC-CM (CTCM) assay with cardiac hazard scoring; conditions: for arrhythmic (EAD-like) events: tested concentrations of Figure 5; for EAD-like events: control drugs at control concentration (E-4031 30 nM, dofetilide 3 nM, cetirizine 1 μM)
Description: Fluorescence imaging of intracellular calcium dynamics (i.e., calcium transients) enabled the evaluation of the spontaneous beating properties of hiPSC-CMs (Figure 2A) using the following parameters: (1) calcium transient duration at 90% of decay following the peak amplitude (CTD90), (2) beat rate (BR) representing the number of calcium transients (i.e., beats) per minute, and (3) amplitude (Amp), representing the difference between the minimum and the maximum (peak) calcium signal.
Effects on hiPSC-CMs were evaluated after a 30-min incubation period and normalized against the respective baseline recording, yielding a Δ% change in CTD90, BR, and Amp.
Cells were cultured with Cor.4U culture medium (Ax-M-HC250) in a humidified incubator at 37°C and 5% CO2, with medium being changed once a day. On the day of the experiment, the culture medium was replaced with Tyrode's solution (Sigma, No. T2397) supplemented with 10 mM HEPES together with KCl to represent isokalemic (4.2 mM K^+) conditions.
Briefly, Cal-520 was incubated for 45 min followed by a washout and a 30-min recovery before starting the experiments.
The spontaneous beating activity of hiPSC-CMs was assessed through measurement of the Ca^2+ fluorescence signal integrated over the whole well.
First, the experimental plates were put into the FDSS/μCell to stabilize for 10 min. Next, a baseline recording was run for 3 min followed by compound addition. The effect of a compound was recorded (5-min recording time) around 15 and 30 min after compound addition. CTD90, BR, and Amp were quantified for baseline and 30-min compound effects as the median value of all beats (calcium transients) measured within a 1-min interval of the recording. The recording around 15 min was used only for observation of EADs or fibrillation-like events. EADs were manually monitored and evaluated. Beat stop was defined after 30 min in case BR was <5 beats/min. Wells that temporarily stopped beating during compound addition but recovered at the 30-min time point were not defined as beat stop.
The responses were measured at baseline and at 30 min.

hERG = conditions: no reference given; read-out: half maximal inhibitory concentration [IC50] on hERG; cited from earlier work
[2] = 30-min incubation, reference drugs
[3] = reference drugs, tested concentrations of Figure 5 (selected to cover the therapeutic free Cmax), 30-min incubation
[4] = 5 μM (free Cmax), 30-min incubation, control drug over numerous studies
[5] = 0.1 μM, 30-min incubation, control drug over numerous studies, the rest in the high hazard zone
[6] = 3 nM (2-fold free Cmax), 30-min incubation, control drug over numerous studies

Structure (SMILES): CC(C)(C)NCC(O)c1ccc(O)c(CO)c1 (centres unmarked) [Salbutamol]
- effect on beat rate (BR) [1, 2]: strong BR increase
- cardiac hazard label [1, 3]: low or high

Structure (SMILES): C[C@@H]1O[C@@H](O[C@H]2C[C@@H](O)[C@]3(CO)[C@H]4[C@H](O)C[C@]5(C)[C@@H](C6=CC(=O)OC6)CC[C@]5(O)[C@@H]4CC[C@]3(O)C2)[C@H](O)[C@H](O)[C@H]1O [Ouabain]
- cardiac hazard label [1, 3]: high

Structure (SMILES): COc1cc2c(cc1OC)CC(=O)N(CCCN(C)C[C@H]1Cc3cc(OC)c(OC)cc31)CC2 [Ivabradine]
- IC50 (hERG): ~2400 nM

Structure (SMILES): COC(=O)C1=C(C)NC(C)=C([N+](=O)[O-])C1c1ccccc1C(F)(F)F (centres unmarked) [BAYK8644]
- effect on amplitude (Amp) ([1]; 30-min incubation): increase the Amp
- cardiac hazard label [1, 3]: high

Structure (SMILES): COc1ccc(C(=O)Nc2ccccc2CCC2CCCCN2C)cc1 (centres unmarked) [Encainide]
- arrhythmic (EAD-like) events ([1]; reference drugs): caused arrhythmic events

Structure (SMILES): CCCNCC(O)COc1ccccc1C(=O)CCc1ccccc1 (centres unmarked) [Propafenone]
- effect on CTD90 [1, 2]: CTD90 prolongation

Structure (SMILES): O=C(Nc1ccc(Oc2ccccc2)cc1)c1cccc([N+](=O)[O-])c1 [ICA-105574]
- effect on CTD90 [1, 2]: CTD90 shortening
- cardiac hazard label [1, 3]: hazard identification

Structure (SMILES): O=C(c1ccc(OCCN2CCCCC2)cc1)c1c(-c2ccc(O)cc2)sc2cc(O)ccc12 [Raloxifene]
- safety margin (tested concentration/free Cmax) at which a hazard was scored ([1]; 3–10 μM, negative control drug): ≥ 2500 fold the free Cmax
- concentrations not scored as no hazard ([1]; negative control drug, exception to the no hazard scoring): 3000 to 10000 nM

Structure (SMILES): Cc1cc2c(s1)Nc1ccccc1N=C2N1CCN(C)CC1 [Olanzapine]
- cardiac hazard label ([1]; up to the highest tested concentration (100 nM), around the free Cmax): not identified with any hazard

Structure (SMILES): CC(N/C(=N\C#N)Nc1ccncc1)C(C)(C)C (centres unmarked) [Pinacidil]
- effect on CTD90 [1, 2]: CTD90 shortening
- cardiac hazard label [1, 3]: potentially hazardous compounds

Structure (SMILES): CN(C)CCC[C@@]1(c2ccc(F)cc2)OCc2cc(C#N)ccc21 [Escitalopram]
- cardiac hazard label ([1]; at 3- to 10-fold the free Cmax): high

Structure (SMILES): CC1(C)Oc2ccc(C#N)cc2[C@@H](N2CCCC2=O)[C@@H]1O [Levcromakalim]
- effect on CTD90 [1, 2]: CTD90 shortening
- cardiac hazard label [1, 3]: potentially hazardous compounds

Structure (SMILES): O=C1NC(=O)C(c2ccccc2)(c2ccccc2)N1 [Phenytoin]
- studies identified as low hazard [1, 4]: 20%
- studies identified as no hazard [1, 4]: 78%
- incidence of beat stop (% of wells) ([1]; 5 μM, 30-min incubation): ≤ 50%
- cardiac hazard label [1, 3]: low or high

Structure (SMILES): CC(C)NCC(O)COc1ccc(CC(N)=O)cc1 (centres unmarked) [Atenolol]
- cardiac hazard label [1, 3]: not identified for any potential hazard

Structure (SMILES): CC(CCc1ccc(O)cc1)NCCc1ccc(O)c(O)c1 (centres unmarked) [Dobutamine]
- effect on beat rate (BR) [1, 2]: strong BR increase
- cardiac hazard label [1, 3]: low or high

Structure (SMILES): CCN(CC)CCCN(c1ccccc1)C1Cc2ccccc2C1 [Aprindine]
- effect on CTD90 [1, 2]: CTD90 prolongation

Structure (SMILES): O=C(NCCO[N+](=O)[O-])c1cccnc1 [Nicorandil]
- cardiac hazard label [1, 3]: not shown to have any potential hazard risk

Structure (SMILES): CN(C)CCCC1(c2ccc(F)cc2)OCc2cc(C#N)ccc21 (centres unmarked) [Citalopram]
- cardiac hazard label [1, 3]: low

Structure (SMILES): CCC(=O)O[C@](Cc1ccccc1)(c1ccccc1)[C@H](C)CN(C)C [Propoxyphene]
- effect on CTD90 [1, 2]: CTD90 prolongation

Structure (SMILES): COCCOC(=O)C1=C(C)NC(C)=C(C(=O)OC(C)C)C1c1cccc([N+](=O)[O-])c1 (centres unmarked) [Nimodipine]
- studies identified as low hazard [1, 5]: 80%
- effect on amplitude (Amp) ([1]; 30-min incubation): strongly decrease the Amp

Structure (SMILES): C[N+](C)(C)CCOC(N)=O [Carbachol]
- cardiac hazard label [1, 3]: not identified for any potential hazard

Structure (SMILES): Cc1cccc(C)c1OCC(C)N (centres unmarked) [Mexiletine]
- cardiac hazard label [1, 3]: low or high

Structure (SMILES): CC(=O)c1c(O)c(C)c(O)c(Cc2c(O)c3c(c(C(=O)/C=C/c4ccccc4)c2O)OC(C)(C)C=C3)c1O [Mallotoxin]
- effect on CTD90 [1, 2]: CTD90 shortening
- cardiac hazard label [1, 3]: hazard identification

Structure (SMILES): CN(CCOc1ccc(NS(C)(=O)=O)cc1)CCc1ccc(NS(C)(=O)=O)cc1 [Dofetilide]
- studies identified as high hazard [1, 6]: 14%
- studies identified as very high hazard [1, 6]: 80%
- EAD-like events ([1]; 30-min incubation): provoked such EAD-like events

Structure (SMILES): O=C1NCCN1CCN1CCC(c2cn(-c3ccc(F)cc3)c3ccc(Cl)cc23)CC1 [Sertindole]
- safety margin (tested concentration/free Cmax) at which very high hazard (arrhythmic events) was scored [1]: approximately 625 fold the free Cmax
- cardiac hazard label ([1]; 1 μM, 30-min incubation): very high

Structure (SMILES): CC[C@H]1[C@@H]2C[C@H]3[C@@H]4N(C)c5ccccc5[C@]45C[C@@H]([C@H]2[C@H]5O)N3[C@@H]1O [Ajmaline]
- arrhythmic (EAD-like) events ([1]; reference drugs): caused arrhythmic events

Structure (SMILES): CC(C)(Oc1ccc(Cl)cc1)C(=O)NC1C2CC3CC1CC(NS(C)(=O)=O)(C3)C2 (centres unmarked) [JNJ-303]
- cardiac hazard label [1, 3]: cannot be easily detected

Structure (SMILES): CCCCCNC(=N)N/N=C/c1c[nH]c2ccc(OC)cc12 [Tegaserod]
- cardiac hazard label [1, 3]: high

Structure (SMILES): CC(C)NCC(O)c1ccc(O)c(O)c1 (centres unmarked) [Isoprenaline]
- studies identified as low hazard [1, 5]: 70%
- effect on amplitude (Amp) ([1]; 30-min incubation): increase the Amp
- effect on beat rate (BR) [1, 2]: strong BR increase
- cardiac hazard label [1, 3]: low or high

Structure (SMILES): O=C(O)COCCN1CCN(C(c2ccccc2)c2ccc(Cl)cc2)CC1 (centres unmarked) [Cetirizine]
- studies identified as no hazard ([1]; 1 μM (16-fold free Cmax), 30-min incubation, control drug over numerous studies): 99%
- EAD-like events ([1]; 30-min incubation): not observed any EAD-like event

Structure (SMILES): C=C[C@H]1C[N@@]2CC[C@H]1C[C@@H]2[C@@H](O)c1ccnc2ccc(OC)cc12 [Quinidine]
- arrhythmic (EAD-like) events ([1]; reference drugs): caused arrhythmic events
